In patent US10005793B2, “Bodipy dyes for biological imaging” (The General Hospital Corporation, priority 2012, dated 2018):

Assays:
[1] = test system: MDA-MB-231 pLVX H2B-mCherry cells; experiment: Live cell fluorescence imaging after 24 hours treatment; type: cell-based; settings: 24 hours at 10 μM, 1 μM, and 100 nM; FIG. 5
Procedure: To investigate the impact of dye lipophilicity in the in vivo imaging context, we further treated MD-MBA 231 cells (with an H2B mCherry fluorescent reporter to localize the nucleus) with each compound for 24 hours at 10 μM, 1 μM, and 100 nM. Cells (MDA-MB-231 pLVX H2B-mCherry) lines were cultured using sterile technique in plastic dishes with standard cell-growth media [RPMI 1640 1× (+) phenol red, (+) 10% FBS, (+) 1% Pen-Strep]. Culture incubation during and in between experiments was performed in a sterile incubator (37° C., 5% CO2). All cultures used in imaging studies were confirmed to be mycoplasma-free prior to experimentation using a commercially available detection kit (MycoAlert, Lonza).
This property thereby limits non-specific staining effects that could have a confounding effect small-molecule imaging applications.

[2] = test system: MD-MBA 231 cell line; experiment: Wash-out experiment, live-cell imaging; type: cell-based; settings: 30 minutes incubation with 10 µM compound, three 30 minute washes; FIG. 6
Procedure: Further validation of the dyes' low-lipophilicity was achieved via a wash-out experiment with the MD-MBA 231 cell line. In this experiment, we investigated the ease of washing out the mono-alkoxy fluorophores within 30 minutes (e.g., within 15 minutes of the start of incubation).
Two days prior to imaging, cells were seeded at 20,000 cells/well on a 96-well Glass Bottom Microwell plate (MatriPlate, MGB096-1-2-LG-L) treated with 1× Attachment Factor (0.1% gelatin, Gibco). For these experiments, phenol-red free imaging media was used [RPMI 1640 1× (+) 10% FBS]. The day of imaging, each well was incubated for 30 minutes with […] of the title compound suspended in cell imaging media (final DMSO content=0.1%). Subsequently three washes were performed. Each wash consisted of removing spent media, adding fresh imaging media, and incubating the cells for 30 minutes. After the final wash, the media was aspirated, a thin layer of cell imaging media was added, and wells were rapidly imaged.
Live-cell imaging was performed on a Zeiss Axiovert 100M inverted epifluorescence microscope with a 40× objective. Per region of interest, a bright field view was acquired as well as GFP, TexasRed fluorescence channels.

CC1=CC(C)=[N+]2C1=C(C)c1c(C)cc(C)n1[B-]2(F)F [AMC1094, 1,3,5,7,8-Pentamethyl BODIPY]
staining pattern of live cells [1]: significant non-specific staining of cellular compartments | staining after wash-out [2]: persistent non-specific staining

CC1=CC(C)=[N+]2C1=C(C)c1c(C)cc(C)n1[B-]2(F)OCCO (stereo not shown) [AMC1029, 5-fluoro-5-(2-hydroxyethoxy)-1,3,7,9,10-pentamethyl-5H-dipyrrolo[1,2-c:2′,1′-f][1,3,2]diazaborinin-4-ium-5-uide]
staining pattern of live cells [1]: diffuse fluorescent signal

CO[B-]1(F)n2c(C)cc(C)c2C(C)=C2C(C)=CC(C)=[N+]21 (stereo not shown) [AMC1028, 5-fluoro-5-methoxy-1,3,7,9,10-pentamethyl-5H-dipyrrolo[1,2-c:2′,1′-f][1,3,2]diazaborinin-4-ium-5-uide]
staining pattern of live cells [1]: diffuse fluorescent signal
